The values that follow come from ChEMBL document CHEMBL1144386, “Synthesis of O-galactosyl aldoximes as potent LacNAc-mimetic galectin-3 inhibitors” (Bioorg Med Chem Lett, 2005).

A short description of this experiment: Dissociation constant against galectin-3 using competitive fluorescence polarization. (In fluorescence polarisation assays a small probe gives low polarisation when free and higher when bound to something large.)
By Kd is commonly meant the equilibrium constant for the complex coming apart. Low values mean tighter binding, high ones weaker binding. In the case of `O=[N+]([O-])c1cccc(/C=N/O[C@@H]2OC(CO)C(O)[C@H](O)C2O)c1` (stereo partly specified), the Kd was found to be 530 µM.
The compound `Cc1ccc(O)c(/C=N/O[C@@H]2OC(CO)C(O)[C@H](O)C2O)c1` (stereo partly specified) showed a Kd of 2600 µM.
For the compound `OCC1O[C@@H](O/N=C/c2cccc(OC(F)(F)F)c2)C(O)[C@@H](O)C1O` (stereo partly specified), binding was put at a Kd of 2200 µM.
`OCC1O[C@@H](O/N=C/c2cccc3ccccc23)C(O)[C@@H](O)C1O` (stereo partly specified) displayed a Kd of 370 µM.
On to `OCC1O[C@@H](O/N=C/c2ccc(-c3ccccc3)cc2)C(O)[C@@H](O)C1O` (stereo partly specified), for which the Kd is 6000 µM.
The result for `OCC1O[C@@H](O/N=C/c2ccccc2O)C(O)[C@@H](O)C1O` (stereo partly specified) reads 1800 µM.
`OCC1O[C@@H](O/N=C/c2c[nH]c3ccccc23)C(O)[C@@H](O)C1O` (stereo partly specified) displayed a Kd of 330 µM.
`OCC1O[C@@H](O/N=C/c2ccc(F)cc2)C(O)[C@@H](O)C1O` (stereo partly specified): the dissociation constant Kd is 3100 µM.
The result for `COc1ccc(/C=N/O[C@@H]2OC(CO)C(O)[C@H](O)C2O)c(O)c1` (stereo partly specified) reads 1700 µM; that for `OCC1O[C@@H](O/N=C/c2cccc(O)c2)C(O)[C@@H](O)C1O` (stereo partly specified), 1800 µM; that for `OC[C@H]1O[C@@H](O/N=C/c2c[nH]c3ccccc23)[C@H](O)[C@@H](O)[C@H]1O`, 220 µM.
The figure for `C/C=N/O[C@@H]1OC(CO)C(O)[C@H](O)C1O` (stereo partly specified) is 5700 µM; for `O=[N+]([O-])c1ccc(/C=N/O[C@@H]2OC(CO)C(O)[C@H](O)C2O)o1` (stereo partly specified) it is 1600 µM; for `OCC1O[C@@H](O/N=C/c2ccccc2F)C(O)[C@@H](O)C1O` (stereo partly specified) it is greater than 10000 µM.
The result for `OCC1O[C@@H](O/N=C/c2ccoc2)C(O)[C@@H](O)C1O` (stereo partly specified) reads greater than 10000 µM; that for `OCC1O[C@@H](O/N=C/CCl)C(O)[C@@H](O)C1O` (stereo partly specified), 5300 µM.
`NO[C@@H]1OC(CO)C(O)[C@H](O)C1O` (stereo partly specified) showed a Kd of 5500 µM.
The figure for `OCC1O[C@@H](O/N=C/c2ccc(Br)cc2)C(O)[C@@H](O)C1O` (stereo partly specified) is 690 µM; for `CC(=O)Nc1ccc(/C=N/O[C@@H]2OC(CO)C(O)[C@H](O)C2O)cc1` (stereo partly specified) it is 4100 µM; for `OCC1O[C@@H](O/N=C/c2cccc(-c3ccccc3)c2)C(O)[C@@H](O)C1O` (stereo partly specified) it is 2900 µM.
The figure for `OCC1O[C@@H](O/N=C/c2ccc(O)cc2)C(O)[C@@H](O)C1O` (stereo partly specified) is 4800 µM; for `CCn1c2ccccc2c2cc(/C=N/O[C@@H]3OC(CO)C(O)[C@H](O)C3O)ccc21` (stereo partly specified) it is 2200 µM; for `OCC1O[C@@H](O/N=C/c2ccc(OCc3ccccc3)cc2)C(O)[C@@H](O)C1O` (stereo partly specified) it is greater than 10000 µM.
The figure for `OCC1O[C@@H](O/N=C/c2ccccc2-c2ccccc2)C(O)[C@@H](O)C1O` (stereo partly specified) is 2900 µM; for `OCC1O[C@@H](O/N=C/C(c2ccccc2)c2ccccc2)C(O)[C@@H](O)C1O` (stereo partly specified) it is 7200 µM.
Take `COc1cccc(/C=N/O[C@@H]2OC(CO)C(O)[C@H](O)C2O)c1O` (stereo partly specified): binding was characterised by a dissociation constant (Kd) of 1700 µM. This Kd lies about 4.2-fold lower than the previous one.
The figure for `C=NO[C@@H]1OC(CO)C(O)[C@H](O)C1O` (stereo partly specified) is 8900 µM.
`O=[N+]([O-])c1ccc(/C=N/O[C@@H]2OC(CO)C(O)[C@H](O)C2O)cc1` (stereo partly specified) returned a Kd of 2200 µM.
`Cc1ccccc1/C=N/O[C@@H]1O[C@@H](CO)[C@H](O)[C@H](O)[C@@H]1O` returned a Kd of 5700 µM.
The compound `OCC1O[C@@H](O/N=C/c2ccc3ccccc3c2)C(O)[C@@H](O)C1O` (stereo partly specified) showed a Kd of 2300 µM.
The figure for `CN(C)c1ccc(/C=N/O[C@@H]2OC(CO)C(O)[C@H](O)C2O)cc1` (stereo partly specified) is 9000 µM.
The result for `OCC1O[C@@H](O/N=C/c2ccc(O)c(O)c2)C(O)[C@@H](O)C1O` (stereo partly specified) reads 550 µM.
Compound `O=[N+]([O-])c1ccc(/C=N/O[C@@H]2OC(CO)C(O)[C@H](O)C2O)c([N+](=O)[O-])c1` (stereo partly specified) showed a Kd of 1800 µM.
The figure for `OCC1O[C@@H](O/N=C/C2CCCCC2)C(O)[C@@H](O)C1O` (stereo partly specified) is 4800 µM; for `OCC1O[C@@H](O/N=C\C2C[C@H]3C=CC2C3)C(O)[C@@H](O)C1O` (stereo partly specified) it is 4800 µM; for `OCC1O[C@@H](O/N=C/c2ccccc2OC(F)(F)F)C(O)[C@@H](O)C1O` (stereo partly specified) it is 3800 µM.
On to `OCC1O[C@@H](O/N=C/c2ccc(O)cc2O)C(O)[C@@H](O)C1O` (stereo partly specified), for which the Kd turned out to be 840 µM.
`CC(C)(C)c1ccc(/C=N/O[C@@H]2OC(CO)C(O)[C@H](O)C2O)cc1` (stereo partly specified): the Kd is 4800 µM.
Compound `OCC1O[C@@H](O/N=C/c2ccnc3ccccc23)C(O)[C@@H](O)C1O` (stereo partly specified) returned a Kd of 620 µM. This Kd lies about 7.7-fold lower than the previous one.
Compound `OCC1O[C@@H](O/N=C/c2ccc3ccccc3n2)C(O)[C@@H](O)C1O` (stereo partly specified) gave a Kd of 1400 µM. This Kd lies about 2.3-fold higher than the previous one.
The figure for `OCC1O[C@@H](O/N=C/c2cc(Br)ccc2O)C(O)[C@@H](O)C1O` (stereo partly specified) is 1650 µM.
Compound `OCC1O[C@@H](O/N=C/c2cccc(F)c2)C(O)[C@@H](O)C1O` (stereo partly specified) gave a Kd of 1600 µM.
The figure for `OCC1O[C@@H](O/N=C/c2ccccc2)C(O)[C@@H](O)C1O` (stereo partly specified) is 3500 µM; for `O=[N+]([O-])c1ccccc1/C=N/O[C@@H]1OC(CO)C(O)[C@H](O)C1O` (stereo partly specified) it is 9300 µM; for `OCC1O[C@@H](O/N=C/c2c3ccccc3cc3ccccc23)C(O)[C@@H](O)C1O` (stereo partly specified) it is 2500 µM.
With `OCC1O[C@@H](O/N=C/CCc2ccccc2)C(O)[C@@H](O)C1O` (stereo partly specified), the Kd was greater than 10000 µM.
The result for `OCC1O[C@@H](O/N=C/c2cc(O)ccc2O)C(O)[C@@H](O)C1O` (stereo partly specified) reads 780 µM.
Compound `OCC1O[C@@H](O/N=C/Cc2ccccc2)C(O)[C@@H](O)C1O` (stereo partly specified) showed a Kd greater than 10000 µM.
Regarding `OCC1O[C@@H](O/N=C/c2cccnc2)C(O)[C@@H](O)C1O` (stereo partly specified), the Kd is 3300 µM.
With `O=[N+]([O-])c1ccc(O)c(/C=N/O[C@@H]2OC(CO)C(O)[C@H](O)C2O)c1` (stereo partly specified), the Kd came out at 360 µM.
The result for `CCC(/C=N/O[C@@H]1OC(CO)C(O)[C@H](O)C1O)CC` (stereo partly specified) reads 7300 µM; that for `OCC1O[C@@H](O/N=C/c2ccncc2)C(O)[C@@H](O)C1O` (stereo partly specified), greater than 10000 µM; that for `OCC1O[C@@H](O/N=C/c2ccco2)C(O)[C@@H](O)C1O` (stereo partly specified), 6400 µM.
Compound `O=C[C@H](O)[C@@H](O)[C@@H](O)[C@H](O)CO` [GALACTOSE] came in with a Kd of 4000 µM.
In turn, `OC[C@H]1O[C@@H](O)[C@H](O)[C@@H](O)[C@H]1O` [b-D-GALACTOSE] came in with a Kd of 4400 µM.
Regarding LACTOSE, ANHYDROUS, binding was characterised by a dissociation constant (Kd) of 220 µM.
